Test results reported in US20090247497A1, “FORMULATION AND USE OF ERGOSTA-7,22-DIEN-3BETA-OL” (priority 2008, published 2009).

Test system: human promyelocytic leukemia HL-60 cells
Assay: in vivo anti-tumor (anti-leukemia) study, HL-60 xenografts in nude mice
Parameters: species or system Athymic nude mice (BALB/c nu/nu)
Settings: for % inhibition for 1.5 mg/kg/day dosage group: 1.5 mg/kg/day oral (gastric gavage), from relative tumor weight vs control
Procedure: The following study on nude mice was conducted to investigate the in vivo anti-tumor activities, specifically the anti-leukemia effects, of ergosta-7,22-dien-3β-ol.
Athymic nude mice (BALB/c nu/nu, with body weight of 20-25 g and aged 6-10 weeks) were kept in autoclaved cages with polyester fiber filters to avoid contact with the pathogens. All the animal diet and tap water were autoclaved before feeding to nude mice ad libitum.
Suspension of 1×10^7 of human promyelocytic leukemia HL-60 cells was then injected subcutaneously (s.c.) into the dorsal side of nude mice.
In this study, the tested item was the powders of ergosta-7,22-dien-3β-ol obtained according to the method described in Example 1 above.
When palpable tumors (about 100-200 mm^3 in volume) arose within 14-21 days after injection, the mice were randomly divided into three treatment groups and one control group in which each group consisted of 15 mice. Then, the mice in the treatment group were administrated with the tested item at three dose levels of 1.5, 15.0 or 50.0 mg (of tested item)/kg (of body weight of mouse)/day (in distilled water), while those mice in the control group were administrated with distilled water (as control vehicle). Both groups of mice were administrated by oral route (gastric gavage) daily (except Sundays) for up to 28 days. Tumor dimension was measured on every Mondays, Wednesdays and Fridays.
Tumor dimension was measured by Vernier caliper and tumor weight and tumor volume were calculated according to the following formulae:
Tumor weight (mg)=L×W^2×π/6; and
Tumor volume (mm^3)=L×W×H×π/6;
where L, W, and H were the major dimension, the minor dimension, and the height of the tumor respectively (π=3.1416).
The relative tumor weight was calculated by dividing the tumor weight on a certain day by the mean tumor weight on Day 1. Similarly, the relative tumor volume was calculated by dividing the tumor volume on a certain day by the mean tumor volume on Day 1.
Upon 28 days of administration, the nude mice were euthanized and the final body and tumor weights were recorded for calculating the ratio of the final tumor-to-body weight.
The above-shown results were expressed as the mean±SE of the percentage of inhibition of the tested item on the growth of HL-60 xenografts in nude mice in single experiments. Percentage of inhibition (for any Day n) was calculated from the following formula:
(1−relative tumor weight of treatment group on Day n/relative tumor weight of control group on Day n)×100%.

[1] = 1.5, 15.0 or 50.0 mg/kg/day oral, up to 28 days, all three treatment groups, 1.5 mg/kg/day most significant

CC(C)[C@@H](C)/C=C/[C@@H](C)[C@H]1CC[C@H]2C3=CCC4C[C@@H](O)CC[C@]4(C)[C@H]3CC[C@]12C (stereo partly drawn) [ergosta-7,22-dien-3β-ol]
Anti-tumor activity (1.5, 15.0 and 50.0 mg/kg/day oral, HL-60 xenografts in nude mice): observed at all three dosage groups | percentage ratios of final tumor-to-body weight (1.5, 15.0 or 50.0 mg/kg/day oral, after 28 days, three treatment groups vs control, 1.5 mg/kg/day most significant): lower than that of the control group | relative tumor volume [1]: some effects in the reductions | relative tumor weight [1]: some effects in the reductions | % inhibition for 1.5 mg/kg/day dosage group (Day 1, HL-60 xenografts in nude mice): 0.00% | % inhibition for 1.5 mg/kg/day dosage group (Day 3, HL-60 xenografts in nude mice): 11.35% | % inhibition for 1.5 mg/kg/day dosage group (Day 5, HL-60 xenografts in nude mice): 11.24% | % inhibition for 1.5 mg/kg/day dosage group (Day 8, HL-60 xenografts in nude mice): 23.69% | % inhibition for 1.5 mg/kg/day dosage group (Day 10, HL-60 xenografts in nude mice): 31.65% | % inhibition for 1.5 mg/kg/day dosage group (Day 12, HL-60 xenografts in nude mice): 32.32% | % inhibition for 1.5 mg/kg/day dosage group (Day 15, HL-60 xenografts in nude mice): 30.61% | % inhibition for 1.5 mg/kg/day dosage group (Day 17, HL-60 xenografts in nude mice): 34.99% | % inhibition for 1.5 mg/kg/day dosage group (Day 19, HL-60 xenografts in nude mice): 43.19% | % inhibition for 1.5 mg/kg/day dosage group (Day 22, HL-60 xenografts in nude mice): 38.94% | % inhibition for 1.5 mg/kg/day dosage group (Day 24, HL-60 xenografts in nude mice): 40.57% | % inhibition for 1.5 mg/kg/day dosage group (Day 26, HL-60 xenografts in nude mice): 44.32%
